Measured values from patent publication US6214860A, “Synergistic antitumor composition containing a naphthalensulphonic acid derivative” (Pharmacia & Upjohn S.p.A., priority 1997, dated 2001).
Like-named read-outs stand apart in the source and are kept apart here.

How the values were obtained:
[1] = days 1, 4, 7 and 11, combination: + PNU 145156E 100 mg/kg ip 2 h prior
Experimental: Mice C57BL/6 were implanted with M5076 murine reticulosarcoma cells. PNU 145156E was administered ip 2 h prior to cytotoxic drugs administered iv starting treatment 24 h after tumor implant. Treatments were performed at days 1, 4, 7 and 11.
The toxicological evaluation was performed in terms of body weight loss and spleen and liver reduction.

[2] = tested on: M5076 murine reticulosarcoma cells; assay: In vivo antitumor activity in mice implanted with M5076 tumor cells; design: species or system Mice C57BL/6; conditions: days 1, 4, 7 and 11, combination: + PNU 145156E 100 mg/kg ip 2 h prior; for A.U.C. % inhib. (inhibition of tumor growth): one week after last treatment; for TGD (tumor growth delay): time to reach one gram
Experimental: (§1) The combinations were assayed in vitro on M5076 murine reticulosarcoma cells and in vivo on the same tumor cells implanted intramuscularly.
The antitumor activity was calculated in terms of:
% AUC: inhibition of tumor growth
T/C %: percentage of median increase in survival time
The A.U.C. (area under the curve) of the tumor growth was calculated by using the trapezoidal method, and is referred to the measurement of tumor growth performed one week after the last treatment. The percentage of inhibition (% A.U.C.) was calculated using the following formula: [formula]
The percentage of increase in survival time (T/C% ) was calculated using the following formula: [formula]
Mice were monitored according to guidelines and sacrificed when tumor weight exceeded 10% body weight. Tumor growth delay (TGD) is the time, in days, to reach one gram of tumor weight in treated animals as compared to control animals.
Evaluation of statistical significance was performed as follows: Student's Test for cytotoxic activity, Two-Way Anova for increase in survival time (T/C %) with combined treatment in comparison to the increase exerted separately by the two drugs, Tukey Test for tumor weight reduction (AUC % inhibition) with combined treatment in comparison to the reduction exerted separately by the two drugs.
The criterion for statistical significance was the 0.01 level ( )

[3] = tested on: M5076 murine reticulosarcoma cells; assay: In vitro antiproliferative activity (% cell growth vs untreated control); format: cell-based
Experimental: as §1

With `CC(=O)O[C@H]1C(=O)[C@@]2(C)[C@H]([C@H](OC(=O)c3ccccc3)[C@]3(O)C[C@H](OC(=O)[C@H](O)[C@@H](NC(=O)c4ccccc4)c4ccccc4)C(C)=C1C3(C)C)[C@]1(OC(C)=O)CO[C@@H]1C[C@@H]2O` [PACLITAXEL, paclitaxel] the Toxic/total mice ([1]; TX 33 mg/kg iv) was 0/10, the Toxic/total mice ([1]; TX 40 mg/kg iv) was 0/10 and the “T/C % (median increase in survival time)” value ([2]; TX 33 mg/kg iv) was 108%. The Tumor weight ([2]; TX 33 mg/kg iv) was 2.34 ± 0.9 gr, the “A.U.C. % inhib. (inhibition of tumor growth)” value ([2]; TX 33 mg/kg iv) was 77% and the “TGD (tumor growth delay)” value ([2]; TX 33 mg/kg iv) was 8 days. The “T/C % (median increase in survival time)” value ([2]; TX 40 mg/kg iv) was 118%, the Tumor weight ([2]; TX 40 mg/kg iv) was 1.3 ± 0.7 gr and the “A.U.C. % inhib. (inhibition of tumor growth)” value ([2]; TX 40 mg/kg iv) was 93%. For the same compound, the “TGD (tumor growth delay)” value ([2]; TX 40 mg/kg iv) was 9 days, the activity at 0.00625 µg/mL ([3]; Mus musculus, M5076, cytotoxic 6.25 ng/ml, PNU 145156E 0 ng/ml, 72 h, 37° C., read-out: % cell growth ± S.E.) was 89 ± 1% and the activity at 0.025 µg/mL ([3]; Mus musculus, M5076, cytotoxic 25 ng/ml, PNU 145156E 0 ng/ml, 72 h, 37° C., read-out: % cell growth ± S.E.) was 50 ± 7%. The activity at 0.1 µg/mL ([3]; Mus musculus, M5076, cytotoxic 100 ng/ml, PNU 145156E 0 ng/ml, 72 h, 37° C., read-out: % cell growth ± S.E.) was 1 ± 1%, the “% cell growth ± S.E.” value ([3]; cytotoxic 6.25 ng/ml + PNU 145156E 50000 ng/ml, 72 h, 37° C.) was 87 ± 14% and the “% cell growth ± S.E.” value ([3]; cytotoxic 25 ng/ml + PNU 145156E 50000 ng/ml, 72 h, 37° C.) was 43 ± 1%. The “% cell growth ± S.E.” value ([3]; cytotoxic 100 ng/ml + PNU 145156E 50000 ng/ml, 72 h, 37° C.) was 2 ± 0% and the “antiproliferative activity in the presence of PNU 145156E” value ([3]; in words, PNU 145156E 50000 ng/ml vs 0 ng/ml) was “unchanged in the presence of PNU 145156E”.
